Legend:
Canis familiaris [1] = test: Tested for response in dogs after peroral administration of 1 mg/kg; cured/treated is 2/2; format: functional, organism-based; parameters: dose 1 mg/kg; details: Canis lupus familiaris
Rattus norvegicus = species: Rattus norvegicus; test: The compound was evaluated for its ability to release growth hormone from rat pituitary cells.; format: functional, cell-based; details: Pituitary gland cell
Canis familiaris [2] = test: Tested for response in dogs after peroral administration of 0.5 mg/kg; cured/treated is 1/2; format: functional, organism-based; parameters: dose 0.5 mg/kg; details: Canis lupus familiaris
Canis familiaris [3] = test: Tested for response in dogs after iv administration of 0.1 mg/kg; cured/treated is 0/1; format: functional, organism-based; parameters: dose 0.1 mg/kg; details: Canis lupus familiaris
Canis familiaris [4] = test: Tested for response in dogs after peroral administration of 0.25 mg/kg; cured/treated is 2/2; format: functional, organism-based; parameters: dose 0.25 mg/kg; details: Canis lupus familiaris
Canis familiaris [5] = test: Tested for response in dogs after peroral administration of 0.125 mg/kg; cured/treated is 1/2; format: functional, organism-based; parameters: dose 0.125 mg/kg; details: Canis lupus familiaris
Canis familiaris [6] = test: Tested for response in dogs after iv administration of 0.025 mg/kg; cured/treated is 1/1; format: functional, organism-based; parameters: dose 0.025 mg/kg; details: Canis lupus familiaris
Canis familiaris [7] = test: Tested for response in dogs after oral administration of 1 mg/kg; cured/treated is 1/1; format: functional, organism-based; parameters: dose 1 mg/kg; details: Canis lupus familiaris
Canis familiaris [8] = test: Tested for response in dogs after iv administration of 0.05 mg/kg; cured/treated is 0/1; format: functional, organism-based; parameters: dose 0.05 mg/kg; details: Canis lupus familiaris
Canis familiaris [9] = test: Tested for response in dogs after iv administration of 0.1 mg/kg; cured/treated is 1/1; format: functional, organism-based; parameters: dose 0.1 mg/kg; details: Canis lupus familiaris
Canis familiaris [10] = test: Tested for response in dogs after oral administration of 2 mg/kg; cured/treated is 0/1; format: functional, organism-based; parameters: dose 2 mg/kg; details: Canis lupus familiaris
Canis familiaris [11] = test: Tested for response in dogs after iv administration of 0.05 mg/kg; cured/treated is 1/1; format: functional, organism-based; parameters: dose 0.05 mg/kg; details: Canis lupus familiaris
Canis familiaris [12] = test: Tested for response in dogs after oral administration of 1 mg/kg; cured/treated is 2/2; format: functional, organism-based; parameters: dose 1 mg/kg; details: Canis lupus familiaris
Canis familiaris [13] = test: Tested for response in dogs after iv administration of 0.05 mg/kg; cured/treated is 1/2; format: functional, organism-based; parameters: dose 0.05 mg/kg; details: Canis lupus familiaris
Canis familiaris [14] = test: Tested for response in dogs after oral administration of 0.5 mg/kg; cured/treated is 1/2; format: functional, organism-based; parameters: dose 0.5 mg/kg; details: Canis lupus familiaris

In the case of `CC(C)(N)C(=O)N[C@H](CCCc1ccccc1)C(=O)N1CCC2(CCc3ccccc32)CC1`, the Response (Canis familiaris [1]) is reported as “cured/treated is 0/1”, the EC50 (Rattus norvegicus) is reported as 10 nM and the Response (Canis familiaris [2]) is reported as “cured/treated is 0/1”. For the same molecule, the Response (Canis familiaris [3]) was “cured/treated is 0/1”.

Molecule `CC(C)(N)C(=O)N[C@H](Cc1c[nH]c2ccccc12)C(=O)N1CCC2(CC1)c1ccccc1CC2O` (stereo partly specified) has an EC50 (Rattus norvegicus) of 65 nM.

For `CC(C)(N)C(=O)N[C@H](CCCc1ccccc1)C(=O)N1CCC2(CC1)CC(=O)c1ccccc12`, the Response (Canis familiaris [4]) was “cured/treated is 1/1”, the Response (Canis familiaris [5]) was “cured/treated is 1/1” and the EC50 (Rattus norvegicus) was 0.8 nM. The Response (Canis familiaris [6]) was “cured/treated is 1/1”.

`CC(C)(N)C(=O)N[C@H](CCCc1ccccc1)C(=O)N1CCC2(CC1)CC(O)c1ccccc12` (stereo partly specified) gave an EC50 (Rattus norvegicus) of 0.72 nM.

`CC(C)(N)C(=O)N[C@H](Cc1c[nH]c2ccccc12)C(=O)N1CCC2(CCc3ccccc32)CC1` was tested, and the Response (Canis familiaris [7]) was “cured/treated is 0/1”, the Response (Canis familiaris [8]) was “cured/treated is 0/1” and the Response (Canis familiaris [9]) was “cured/treated is 0/1”. The Response (Canis familiaris [10]) was “cured/treated is 0/1”.

`CC(C)(N)C(=O)N[C@H](Cc1c[nH]c2ccccc12)C(=O)N1CCC2(CC1)CC(O)c1ccccc12` (stereo partly specified) was tested, and the Response (Canis familiaris [1]) was “cured/treated is 1/1”, the EC50 (Rattus norvegicus) was 0.6 nM and the Response (Canis familiaris [11]) was “cured/treated is 1/1”. For the same molecule, the Response (Canis familiaris [2]) was “cured/treated is 1/1”.

`CC(C)(N)C(=O)N[C@H](COCc1ccccc1)C(=O)N1CCC2(CC1)CC(=O)c1ccccc12` showed an EC50 (Rattus norvegicus) of 4.8 nM.

In the case of `CC(C)(N)C(=O)N[C@H](COCc1ccccc1)C(=O)N1CCC2(CC1)CC(O)c1ccccc12` (stereo partly specified), the EC50 (Rattus norvegicus) is reported as 4 nM.

`CC(C)(N)C(=O)N[C@H](COCc1ccccc1)C(=O)N1CCC2(CCc3ccccc32)CC1` gave an EC50 (Rattus norvegicus) of 17 nM.

Work on `CC(C)(N)C(=O)N[C@H](Cc1c[nH]c2ccccc12)C(=O)N1CCC2(CC1)c1ccccc1C(O)C2O` (stereo partly specified) yielded an EC50 (Rattus norvegicus) of 30 nM.

With `CC(C)(N)C(=O)N[C@H](Cc1c[nH]c2ccccc12)C(=O)N1CCC2(CC1)CC(=O)c1ccccc12` the Response (Canis familiaris [12]) was “cured/treated is 1/2”, the Response (Canis familiaris [13]) was “cured/treated is 1/2” and the Response (Canis familiaris [14]) was “cured/treated is 1/2”. The EC50 (Rattus norvegicus) was 1.2 nM.
